According to patent publication US10829796B2, “Bacteria identification and antimicrobial susceptibility test” (priority 2015, dated 2020):

Test system: bacteria in clinical bovine mastitis milk samples
Assay: Combined bacteria identification and antimicrobial susceptibility test (colour of wells, MIC) on clinical bovine mastitis milk samples
Type: cell-based
Experimental: Clinical bovine mastitis milk samples were collected by a vet clinic in South Island, New Zealand. Samples were stored in the freezer for several months and shipped frozen to the testing facility. In this Example, the term “clinical” means that dairy cows had clinical symptoms of an udder infection e.g. cow behaved unusual, milk clots, swollen udder among other typical symptoms. Testing was executed in microwell plate comprising of 24 wells (3×8 wells).
In addition, 20 ul of clinical mastitis sample was added to each well with a laboratory pipette.
(§1) Abbreviations • 1. 80 ul GC+10 ul Tell: 80 ul Giolitti Cantoni base broth+10 ul Tellurite solution (1%); • 2. 80 ul TSB/Esc/Fer Cit: 80 ul Tryptic soy broth containing 0.25% Esculin and 0.125% Ammonium Ferric Citrate; • 3. 80 ul TSB/Esc/Fer Cit+10 ul Genta: 80 ul Tryptic soy broth containing 0.25% Esculin and 0.125% Ammonium Ferric Citrate+10 ul of Gentamycin solution 10 mg/ml; • 4. 80 ul McC/PR25: 80 ul MacConkey broth (single strength) containing 0.0125% phenol red; and • 5. 80 ul TSB/PR25: 80 ul Tryptic soy broth containing 0.0125% phenol red. Bacteria Identification
Columns A to C and rows 1 and 2 were used for bacteria identification. A1: coagulase positive Staph; A2: Staphylococci; B1: Strep group D; B2: Strep group D; C1: general enrichment media (gram+ and gram-bacteria); C2: coliform bacteria.
Column A3 to A8: serial dilution of benzyl penicillin as potassium. Column B3 to B8: serial dilution of ceftiofur as hydrochloride. Column C3 to C8: serial dilution of cloxacillin as sodium. Antibiotic concentrations are listed as free form ranging between 4 ug/ml to 0.05 ug/ml.
Minimum inhibitory substance concentration (MIC) is here defined as the concentration if a colour change occurs between two wells (one well remains red with drug concentration 1, the other one yellow with drug concentration 2, whereas drug concentration 1 is larger than drug concentration 2) then the MIC is the value of drug concentration 1.
Table 21 indicates the microwell plate configuration #1; Drugs: Benzylpenicillin as potassium; Cloxacillin as sodium; Ceftiofur as hydrochloride; Drug concentration in each well (A3 to C8) is based on 80 μl composition+10 μl drug solution+20 μl clinical mastitis milk sample and equivalent to listed drug concentration in μg/ml; 20 ul of clinical bovine mastitis milk sample was added to each well (A1 to C8).
In addition, each well received one drop of clinical sample from a transfer pipette which was on average about 35 mg. This was determined through weighing the well plate prior and after the addition of clinical mastitis samples. This weight was then divided by 24.
as §1, with “•” for “Abbreviations •”, “red.” for “red. Bacteria Identification”
Columns A to C and rows 1 and 2 were used for bacteria identification. A1: coagulase positive Staph; A2: Staphylococci; B1: Strep Group D; B2: -; C1: general enrichment media (gram+ and gram-); C2: coliform bacteria.
Column A3 to A8: serial dilution of benzyl penicillin as potassium. Drug concentrations given as free form ranging between 4 ug/ml to 0.05 ug/ml. Column B3 to B8: serial dilution of ceftiofur as hydrochloride. Drug concentrations given as free form ranging between 4 ug/ml to 0.05 ug/ml. Column C3 to C8: serial dilution of cloxacillin as sodium. Drug concentrations given as free form ranging between 4 ug/ml to 0.05 ug/ml.

CO/N=C(\C(=O)N[C@@H]1C(=O)N2C(C(=O)O)=C(CSC(=O)c3ccco3)CS[C@H]12)c1csc(N)n1 [ceftiofur]
Colour of media in each well (ID 1, T = 22 h, 37° C., plate configuration #1, drug 0.05 μg/ml): yellow
Colour of media in each well (ID 1, T = 22 h, 37° C., plate configuration #1, drug 0.1 μg/ml): yellow
Colour of media in each well (ID 1, T = 22 h, 37° C., plate configuration #1, drug 0.5 μg/ml): red
Colour of media in each well (ID 1, T = 22 h, 37° C., plate configuration #1, drug 1 μg/ml): red
Colour of media in each well (ID 1, T = 22 h, 37° C., plate configuration #1, drug 2 μg/ml): red
Colour of media in each well (ID 1, T = 22 h, 37° C., plate configuration #1, drug 4 μg/ml): red
Colour of media in each well (ID 2, T = 48 h, 37° C., plate configuration #1, drug 0.05 μg/ml): yellow
Colour of media in each well (ID 2, T = 48 h, 37° C., plate configuration #1, drug 0.1 μg/ml): yellow
Colour of media in each well (ID 2, T = 48 h, 37° C., plate configuration #1, drug 0.5 μg/ml): yellow
Colour of media in each well (ID 2, T = 48 h, 37° C., plate configuration #1, drug 1 μg/ml): red
Colour of media in each well (ID 2, T = 48 h, 37° C., plate configuration #1, drug 2 μg/ml): red
Colour of media in each well (ID 2, T = 48 h, 37° C., plate configuration #1, drug 4 μg/ml): red
Colour of media in each well (ID 3, T = 22 h, 37° C., plate configuration #1, drug 0.05 μg/ml): red
Colour of media in each well (ID 3, T = 22 h, 37° C., plate configuration #1, drug 0.1 μg/ml): yellow
Colour of media in each well (ID 3, T = 22 h, 37° C., plate configuration #1, drug 0.5 μg/ml): yellow
Colour of media in each well (ID 3, T = 22 h, 37° C., plate configuration #1, drug 1 μg/ml): red
Colour of media in each well (ID 3, T = 22 h, 37° C., plate configuration #1, drug 2 μg/ml): red
Colour of media in each well (ID 3, T = 22 h, 37° C., plate configuration #1, drug 4 μg/ml): red
Colour of media in each well (ID 3, T = 23 h, 37° C., Table 34, drug 0.05 μg/ml): red
Colour of media in each well (ID 3, T = 23 h, 37° C., Table 34, drug 0.1 μg/ml): yellow
Colour of media in each well (ID 3, T = 23 h, 37° C., Table 34, drug 0.5 μg/ml): yellow
Colour of media in each well (ID 3, T = 23 h, 37° C., Table 34, drug 1 μg/ml): red
Colour of media in each well (ID 3, T = 23 h, 37° C., Table 34, drug 2 μg/ml): red
Colour of media in each well (ID 3, T = 23 h, 37° C., Table 34, drug 4 μg/ml): red
Colour of media in each well (ID 3, T~7 h, 37° C., Table 34, drug 0.05 μg/ml): red
Colour of media in each well (ID 3, T~7 h, 37° C., Table 34, drug 0.1 μg/ml): red
Colour of media in each well (ID 3, T~7 h, 37° C., Table 34, drug 0.5 μg/ml): red
Colour of media in each well (ID 3, T~7 h, 37° C., Table 34, drug 1 μg/ml): red
Colour of media in each well (ID 3, T~7 h, 37° C., Table 34, drug 2 μg/ml): red
Colour of media in each well (ID 3, T~7 h, 37° C., Table 34, drug 4 μg/ml): red
Colour of media in each well (ID 3, T~11 h, 37° C., Table 34, drug 0.05 μg/ml): red
Colour of media in each well (ID 3, T~11 h, 37° C., Table 34, drug 0.1 μg/ml): red
Colour of media in each well (ID 3, T~11 h, 37° C., Table 34, drug 0.5 μg/ml): red
Colour of media in each well (ID 3, T~11 h, 37° C., Table 34, drug 1 μg/ml): red
Colour of media in each well (ID 3, T~11 h, 37° C., Table 34, drug 2 μg/ml): red
Colour of media in each well (ID 3, T~11 h, 37° C., Table 34, drug 4 μg/ml): red
Colour of media in each well (ID 4, T = 22 h, 37° C., plate configuration #1, drug 0.05 μg/ml): yellow
Colour of media in each well (ID 4, T = 22 h, 37° C., plate configuration #1, drug 0.1 μg/ml): yellow
Colour of media in each well (ID 4, T = 22 h, 37° C., plate configuration #1, drug 0.5 μg/ml): orange
Colour of media in each well (ID 4, T = 22 h, 37° C., plate configuration #1, drug 1 μg/ml): red
Colour of media in each well (ID 4, T = 22 h, 37° C., plate configuration #1, drug 2 μg/ml): red
Colour of media in each well (ID 4, T = 22 h, 37° C., plate configuration #1, drug 4 μg/ml): red
Colour of media in each well (ID 5, T = 23 h, 37° C., plate configuration #2, drug 0.05 μg/ml): yellow
Colour of media in each well (ID 5, T = 23 h, 37° C., plate configuration #2, drug 0.1 μg/ml): yellow
Colour of media in each well (ID 5, T = 23 h, 37° C., plate configuration #2, drug 0.5 μg/ml): red
Colour of media in each well (ID 5, T = 23 h, 37° C., plate configuration #2, drug 1 μg/ml): red
Colour of media in each well (ID 5, T = 23 h, 37° C., plate configuration #2, drug 2 μg/ml): red
Colour of media in each well (ID 5, T = 23 h, 37° C., plate configuration #2, drug 4 μg/ml): red
Colour of media in each well (ID 5 to 8, T = 0 h (prior incubation, reference), plate configuration #2, drug 0.05 μg/ml): red
Colour of media in each well (ID 5 to 8, T = 0 h (prior incubation, reference), plate configuration #2, drug 0.1 μg/ml): red
Colour of media in each well (ID 5 to 8, T = 0 h (prior incubation, reference), plate configuration #2, drug 0.5 μg/ml): red
Colour of media in each well (ID 5 to 8, T = 0 h (prior incubation, reference), plate configuration #2, drug 1 μg/ml): red
